Laboratory results published in ChEMBL document CHEMBL4052762, “Synthesis and biological evaluation of pyrrole-based chalcones as CYP1 enzyme inhibitors, for possible prevention of cancer and overcoming cisplatin resistance” (Bioorg Med Chem Lett, 2017).

Tests used:
[1] = Selectivity ratio of IC50 for human CYP2C19 expressed in HEK293 cells to IC50 for human CYP1A2 expressed in HEK293 cells
Homo sapiens [2] = species: Homo sapiens; test: Selectivity ratio of IC50 for human CYP2C9 bound to yeast microsomal membrane to IC50 for human CYP1B1 bound to yeast microsomal membrane
[3] = Selectivity ratio of IC50 for human CYP2D6 expressed in HEK293 cells to IC50 for human CYP1A1 expressed in HEK293 cells
[4] = Selectivity ratio of IC50 for human CYP2C9 expressed in HEK293 cells to IC50 for human CYP1A2 expressed in HEK293 cells
[5] = Selectivity ratio of IC50 for human CYP2D6 expressed in HEK293 cells to IC50 for human CYP1B1 expressed in HEK293 cells
[6] = Selectivity ratio of IC50 for human CYP2C19 expressed in HEK293 cells to IC50 for human CYP1B1 expressed in HEK293 cells
[7] = Selectivity ratio of IC50 for human CYP3A4 expressed in HEK293 cells to IC50 for human CYP1A2 expressed in HEK293 cells
Homo sapiens [8] = species: Homo sapiens; test: Selectivity ratio of IC50 for human CYP3A4 bound to yeast microsomal membrane to IC50 for human CYP1B1 bound to yeast microsomal membrane
Homo sapiens [9] = species: Homo sapiens; test: Selectivity ratio of IC50 for human CYP2C9 bound to yeast microsomal membrane to IC50 for human CYP1A1 bound to yeast microsomal membrane
[10] = Selectivity ratio of IC50 for human CYP2D6 expressed in HEK293 cells to IC50 for human CYP1A2 expressed in HEK293 cells
Cytochrome P450 1A1 [11] = target: T1, Cytochrome P450 1A1 (Homo sapiens, UniProt P04798); test: Inhibition of human CYP1A1 transfected in HEK293 cells assessed as protection from CYP1A1 mediated B[a]P toxicity at 8 times IC50 by MTT assay; assay type: cell-based
T1 sequence (P04798 whole entry): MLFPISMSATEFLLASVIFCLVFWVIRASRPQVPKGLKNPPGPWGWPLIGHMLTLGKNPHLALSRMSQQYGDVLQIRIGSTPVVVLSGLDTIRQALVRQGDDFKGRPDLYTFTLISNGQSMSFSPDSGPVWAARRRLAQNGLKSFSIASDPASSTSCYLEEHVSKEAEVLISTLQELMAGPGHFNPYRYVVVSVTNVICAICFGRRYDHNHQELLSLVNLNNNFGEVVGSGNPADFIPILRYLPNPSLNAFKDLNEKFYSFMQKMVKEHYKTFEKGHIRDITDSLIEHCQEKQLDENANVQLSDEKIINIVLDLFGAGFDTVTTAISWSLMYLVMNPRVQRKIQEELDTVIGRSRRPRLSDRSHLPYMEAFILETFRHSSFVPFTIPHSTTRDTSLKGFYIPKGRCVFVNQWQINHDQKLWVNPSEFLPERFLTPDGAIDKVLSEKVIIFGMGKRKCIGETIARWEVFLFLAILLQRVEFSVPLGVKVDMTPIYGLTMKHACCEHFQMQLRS

Homo sapiens [12] = species: Homo sapiens; test: Selectivity ratio of IC50 for human CYP3A4 bound to yeast microsomal membrane to IC50 for human CYP1A2 bound to yeast microsomal membrane
Homo sapiens [13] = species: Homo sapiens; test: Selectivity ratio of IC50 for human CYP2D6 bound to yeast microsomal membrane to IC50 for human CYP1A1 bound to yeast microsomal membrane
Homo sapiens [14] = species: Homo sapiens; test: Selectivity ratio of IC50 for human CYP2C19 bound to yeast microsomal membrane to IC50 for human CYP1A1 bound to yeast microsomal membrane
[15] = Selectivity ratio of IC50 for human CYP3A4 expressed in HEK293 cells to IC50 for human CYP1B1 expressed in HEK293 cells
Homo sapiens [16] = species: Homo sapiens; test: Selectivity ratio of IC50 for human CYP2C9 bound to yeast microsomal membrane to IC50 for human CYP1A2 bound to yeast microsomal membrane
Homo sapiens [17] = species: Homo sapiens; test: Selectivity ratio of IC50 for human CYP3A4 bound to yeast microsomal membrane to IC50 for human CYP1A1 bound to yeast microsomal membrane
[18] = Selectivity ratio of IC50 for human CYP2C9 expressed in HEK293 cells to IC50 for human CYP1A1 expressed in HEK293 cells
[19] = Selectivity ratio of IC50 for human CYP2C9 expressed in HEK293 cells to IC50 for human CYP1B1 expressed in HEK293 cells
[20] = Selectivity ratio of IC50 for human CYP2C19 expressed in HEK293 cells to IC50 for human CYP1A1 expressed in HEK293 cells
Cytochrome P450 1A1 [21] = target: T1, Cytochrome P450 1A1; test: Inhibition of human CYP1A1 transfected in HEK293 cells assessed as protection against CYP1A1 mediated B[a]P toxicity at 20 uM by MTT assay; assay type: cell-based; settings: hek293, 20 µM
Cytochrome P450 1B1 = target: T2, Cytochrome P450 1B1 (Homo sapiens, UniProt Q16678); test: Inhibition of human CYP1B1 transfected in HEK293 cells assessed as reduction in cisplatin EC50 at 20 uM by MTT assay; assay type: cell-based; settings: hek293, 20 µM
T2 sequence (Q16678 whole entry): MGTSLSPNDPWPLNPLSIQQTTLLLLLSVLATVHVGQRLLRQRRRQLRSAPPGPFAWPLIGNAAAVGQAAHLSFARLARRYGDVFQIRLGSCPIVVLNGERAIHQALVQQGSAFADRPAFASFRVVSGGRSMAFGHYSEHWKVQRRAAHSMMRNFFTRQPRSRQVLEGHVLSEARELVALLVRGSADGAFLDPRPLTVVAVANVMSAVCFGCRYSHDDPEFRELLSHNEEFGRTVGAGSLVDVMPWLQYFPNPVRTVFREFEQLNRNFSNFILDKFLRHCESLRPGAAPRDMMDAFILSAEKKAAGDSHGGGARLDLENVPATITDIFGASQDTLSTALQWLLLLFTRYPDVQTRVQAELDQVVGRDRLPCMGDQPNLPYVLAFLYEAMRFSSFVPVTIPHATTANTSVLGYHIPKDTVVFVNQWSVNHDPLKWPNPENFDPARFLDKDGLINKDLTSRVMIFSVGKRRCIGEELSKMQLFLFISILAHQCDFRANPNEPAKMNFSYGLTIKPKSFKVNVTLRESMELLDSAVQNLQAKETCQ

SMILES	Ratio IC50 [1]	Ratio IC50 (Homo sapiens [2])	Ratio IC50 [3]	Ratio IC50 [4]	Ratio IC50 [5]	Ratio IC50 [6]	Ratio IC50 [7]	Ratio IC50 (Homo sapiens [8])	Ratio IC50 (Homo sapiens [9])	Ratio IC50 [10]	Ratio IC50 (Homo sapiens [12])	Ratio IC50 (Homo sapiens [13])	Ratio IC50 (Homo sapiens [14])	Ratio IC50 [15]	Ratio IC50 (Homo sapiens [16])	Ratio IC50 (Homo sapiens [17])	Ratio IC50 [18]	Ratio IC50 [19]	Ratio IC50 [20]	inhibition (INH) (Cytochrome P450 1A1 [21])	further results
COc1ccccc1/C=C/C(=O)c1ccc[nH]1	>20	> 20	>20	>20	>20	>20	>20	> 20	> 20	>20	> 20	> 20	> 20	>20	> 20	> 20	>20	>20	>20	–	inhibition (INH) (Cytochrome P450 1A1 [11]): Active
O=C(/C=C/c1ccccc1Cl)c1ccc[nH]1	>20	> 20	>20	>20	>20	>20	>20	> 20	> 20	>20	> 20	> 20	> 20	>20	> 20	> 20	>20	>20	>20	Not Active	–
O=C(/C=C/c1ccc(OC(F)(F)F)cc1)c1ccc[nH]1	–	–	–	–	–	–	–	–	–	–	–	–	–	–	–	–	–	–	–	Not Active	inhibition (INH) (Cytochrome P450 1B1): Not Active
